pIC50: −log10 of the molar value. Like-named read-outs stand apart in the source and are kept apart here.
Tests used:
AKT1 WT [1] = biological target: T1, AKT1 WT (Homo sapiens, UniProt P31749, DEL120-128/E133D/G130S/INS132HT/S129A); experiment: Compound 13/AKT1 WT co-crystallization complex, crystal structure; type: binding; conditions: FIG. 1C
T1 construct: Akt1(DrLink)-WT/E17K were gene synthesized and cloned by Gibson assembly into the pFastBac vector; His8 followed by TEV site (MSHHHHHHHHGSENLYFQS) (N); DrLink (replaced PH-kinase interdomain linker, part of the construct's name); made in house; host or cells: Akt1(DrLink): baculovirus/Sf9; NB41: E. coli Rosetta 2(DE3)pLysS
Target sequence in this assay (P31749 with tags, fused parts or gaps DEL120-128/S129A/G130S/INS132HT/E133D): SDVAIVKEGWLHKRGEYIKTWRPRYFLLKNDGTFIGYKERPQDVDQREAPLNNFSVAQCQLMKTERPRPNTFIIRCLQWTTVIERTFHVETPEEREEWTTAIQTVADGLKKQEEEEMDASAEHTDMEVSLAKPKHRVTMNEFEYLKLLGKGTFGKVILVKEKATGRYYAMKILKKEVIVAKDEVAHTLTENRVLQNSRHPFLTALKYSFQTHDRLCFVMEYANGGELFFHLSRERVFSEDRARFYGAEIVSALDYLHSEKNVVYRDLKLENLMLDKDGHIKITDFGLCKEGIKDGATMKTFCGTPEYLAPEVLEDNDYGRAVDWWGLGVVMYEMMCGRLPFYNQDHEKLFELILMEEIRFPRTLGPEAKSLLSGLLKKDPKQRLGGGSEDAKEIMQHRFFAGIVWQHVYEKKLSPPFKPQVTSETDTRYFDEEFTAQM

AKT E17K = biological target: T2, AKT E17K (Homo sapiens, UniProt P31749, DEL120-128/E133D/E17K/G130S/INS132HT/S129A); experiment: Compound 13/AKT E17K co-crystallization complex, crystal structure; type: binding; conditions: FIG. 2C
T2 construct: Akt1(DrLink)-WT/E17K were gene synthesized and cloned by Gibson assembly into the pFastBac vector; His8 followed by TEV site (MSHHHHHHHHGSENLYFQS) (N); DrLink (replaced PH-kinase interdomain linker, part of the construct's name); made in house; host or cells: Akt1(DrLink): baculovirus/Sf9; NB41: E. coli Rosetta 2(DE3)pLysS

AKT1 E17K [2] = biological target: T3, AKT1 E17K (Homo sapiens, UniProt P31749, E17K); experiment: Live cell AKT1 E17K target engagement by NanoBRET competitive probe displacement; type: cell-based; conditions: HEK293 cells transfected with kinase-NanoLuciferase fusion, 2 h at 37° C.
T3 construct: expressed in transfected cells; host or cells: HEK293
Outline: (§1)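 IC50 reflects displacement of a fluorescent ATP-competitive tracer, dosed near its EC50, from kinase–NanoLuciferase fusions in live HEK293 cells. Cells were incubated with compound and tracer for 2 h at 37 °C, then E600/E460 BRET was read.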

AKT2 = biological target: T4, AKT2 (Homo sapiens, UniProt P31751); experiment: Live cell AKT2 target engagement by NanoBRET competitive probe displacement; type: cell-based; conditions: HEK293 cells transfected with kinase-NanoLuciferase fusion, 2 h at 37° C.
T4 construct: expressed in transfected cells; host or cells: HEK293
Outline: as §1

AKT1 WT [3] = biological target: T5, AKT1 WT (Homo sapiens, UniProt P31749); experiment: Live cell AKT1 WT target engagement by NanoBRET competitive probe displacement; type: cell-based; conditions: HEK293 cells transfected with kinase-NanoLuciferase fusion, 2 h at 37° C.
T5 construct: expressed in transfected cells; host or cells: HEK293
Outline: as §1

[4] = tested on: LAPC4 prostate cancer cells; experiment: Antiproliferative effects in LAPC4 cells (CellTiter Glo); type: cell-based; conditions: LAPC4 cells (AKT1 E17K allele), read-out: LAPC4 proliferation IC50
Outline: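 Seed 1,000 cells/well in IMDM/12% FBS/1% P/S; add compound dilutions (DMSO); incubate 72 h; read intracellular ATP with CellTiter Glo; fit luminescence to log(inhibitor)-response Hill curve for IC50.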

AKT1 WT [5] = biological target: T1, AKT1 WT; experiment: Co-crystallization showing covalent complex formation with AKT1 WT; conditions: AKT1(DrLink)-WT-NB41 complex, electron density
Protocol: (§2) Akt1(DrLink)-NB41 Complex Formation
(§3) NB41 was added to AKT(DrLink)-WT/E17K using a 1.2:1 molar ratio and incubated for 10 minutes at 4° C. Final concentration of 10 mM EDTA was then added to this complex. The complex was purified by gel filtration on Superdex 200 (10/300 GL) column (gel filtration buffer: 20 mM HEPES pH 8.0, 20 mM NaCl, 5 mM DTT). The resulting complex was then concentrated to […] and flash-frozen in liquid nitrogen and stored at −80° C. This complex was then used for crystal formation.
(§4) Crystallization, Data Collection and Structure Determination
(§5) 6 mg/mL AKT1 WT or E17K DrLink-NB41 complex is incubated with 1 mM TMB Compound 13 on ice for 2 hours prior to crystallization trials. Crystals were obtained by the vapor diffusion technique at 20′C after mixing an equal volume of the complex with the well solution containing 17-23% PEG3350, 200 mM Li2SO4, 100 mM Bis Tris Propane pH 6.5-9.0, 10% ethylene glycol. Crystals grew within 3 days. Crystals were cryo protected in mother liquor supplemented with […] and flash cooled in liquid nitrogen for storage and data collection. All diffraction datasets were collected and processed by Helix Biostructures at ESRF beamline TD30B on Sep. 1, 2023. […] The initial structures were determined through molecular replacement with Phaser in CCP4 suite with the structure […] 7APJ as a search model. […]
Target sequence in this assay (P31749 with tags, fused parts or gaps DEL120-128/S129A/G130S/INS132HT/E133D): as above
Target sequence in this assay (as listed by the source partner): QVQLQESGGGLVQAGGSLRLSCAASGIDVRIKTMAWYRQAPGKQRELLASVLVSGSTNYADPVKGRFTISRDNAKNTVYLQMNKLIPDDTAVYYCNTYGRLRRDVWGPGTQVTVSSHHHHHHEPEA

AKT1 E17K [6] = biological target: T6, AKT1 E17K (Homo sapiens, UniProt P31749, DEL120-128/E133D/E17K/G130S/INS132HT/S129A); experiment: Co-crystallization showing covalent complex formation with AKT1 E17K; conditions: AKT1(DrLink)-E17K-NB41 complex, electron density
T6 construct: Akt1(DrLink)-WT/E17K were gene synthesized and cloned by Gibson assembly into the pFastBac vector; His8 followed by TEV site (MSHHHHHHHHGSENLYFQS) (N); DrLink (replaced PH-kinase interdomain linker, part of the construct's name); made in house; host or cells: Akt1(DrLink): baculovirus/Sf9; NB41: E. coli Rosetta 2(DE3)pLysS
Protocol: as §2, §3, §4, §5

T3 sequence (P31749 whole entry E17K, the tested form may be a part): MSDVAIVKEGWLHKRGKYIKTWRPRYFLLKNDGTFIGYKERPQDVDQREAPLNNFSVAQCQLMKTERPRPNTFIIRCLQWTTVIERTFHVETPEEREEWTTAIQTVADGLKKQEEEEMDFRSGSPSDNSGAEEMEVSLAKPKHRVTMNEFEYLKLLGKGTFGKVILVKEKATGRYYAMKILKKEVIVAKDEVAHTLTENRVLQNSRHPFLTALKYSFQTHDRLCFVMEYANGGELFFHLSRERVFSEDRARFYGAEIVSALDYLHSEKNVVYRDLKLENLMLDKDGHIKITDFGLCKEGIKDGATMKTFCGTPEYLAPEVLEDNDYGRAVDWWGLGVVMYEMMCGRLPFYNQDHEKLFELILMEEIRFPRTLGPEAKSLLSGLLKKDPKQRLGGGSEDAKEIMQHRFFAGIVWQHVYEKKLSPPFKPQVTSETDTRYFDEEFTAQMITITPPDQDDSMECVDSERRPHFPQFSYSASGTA
T4 sequence (P31751 whole entry, the tested form may be a part): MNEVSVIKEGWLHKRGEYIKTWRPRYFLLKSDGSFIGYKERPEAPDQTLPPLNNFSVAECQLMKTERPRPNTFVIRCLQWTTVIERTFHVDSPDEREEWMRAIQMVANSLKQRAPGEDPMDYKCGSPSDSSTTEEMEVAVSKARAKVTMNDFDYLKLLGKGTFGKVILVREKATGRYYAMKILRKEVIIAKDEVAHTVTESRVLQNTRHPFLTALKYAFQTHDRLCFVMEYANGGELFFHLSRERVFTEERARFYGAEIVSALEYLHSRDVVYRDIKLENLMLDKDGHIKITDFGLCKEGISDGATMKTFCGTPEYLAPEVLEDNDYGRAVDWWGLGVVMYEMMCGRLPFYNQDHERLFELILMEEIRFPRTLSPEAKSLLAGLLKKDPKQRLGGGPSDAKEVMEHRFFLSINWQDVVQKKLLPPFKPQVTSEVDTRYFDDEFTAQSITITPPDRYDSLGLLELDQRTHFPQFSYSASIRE
T5 sequence (P31749 whole entry, the tested form may be a part): as the sequence (P31749 whole entry E17K, the tested form may be a part) above, with K17E counted along it
T6 sequence (P31749 with tags, fused parts or gaps E17K/DEL120-128/S129A/G130S/INS132HT/E133D): as the sequence (P31749 with tags, fused parts or gaps DEL120-128/S129A/G130S/INS132HT/E133D) above, with E16K counted along it
T2 sequence (P31749 with tags, fused parts or gaps E17K/DEL120-128/S129A/G130S/INS132HT/E133D): as the sequence (P31749 with tags, fused parts or gaps DEL120-128/S129A/G130S/INS132HT/E133D) above, with E16K counted along it
T2 sequence (as listed by the source partner): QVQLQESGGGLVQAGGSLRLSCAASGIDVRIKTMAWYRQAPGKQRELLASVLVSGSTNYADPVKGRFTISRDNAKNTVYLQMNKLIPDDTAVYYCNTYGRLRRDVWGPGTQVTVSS

Row | SMILES | pIC50 (AKT1 E17K [2]) | pIC50 (AKT2) | pIC50 (AKT1 WT [3]) | pIC50 ([4]; Homo sapiens, LAPC4, 72 h) | covalent bond formation in co-crystal structure (AKT1 WT [5]) | covalent bond formation in co-crystal structure (AKT1 E17K [6]) | pIC50 ([4]; 72 h) | interaction seen in the co-crystal structure (site of covalent attachment) (AKT1 WT [1]) | interaction seen in the co-crystal structure (site of covalent attachment) (AKT E17K)
1 | C=CS(=O)(=O)Nc1ccccc1C(=O)N[C@H]1CCc2cc(-n3c(-c4cccnc4N)nc4ccc(-n5cccn5)nc43)ccc21 [Example 24, (S)-N-(5-(2-(2-aminopyridin-3-yl)-5-(1H-pyrazol-1-yl)-3H-imidazo[4,5-b]pyridin-3-yl)-2,3-dihydro-1H-inden-1-yl)-2-(vinylsulfonamido)benzamide] | 7.85 | 7.42 | 7.92 | 6.62 | – | – | – | – | –
2 | C=CC(=O)N1CCC(N[C@H]2CCc3cc(-n4c(-c5cccnc5N)nc5ccc(-c6cccnc6)nc54)ccc32)CC1 [Example 110, (S)-1-(4-((5-(2-(2-aminopyridin-3-yl)-5-(pyridin-3-yl)-3H-imidazo[4,5-b]pyridin-3-yl)-2,3-dihydro-1H-inden-1-yl)amino)piperidin-1-yl)prop-2-en-1-one] | 6.85 | 6.20 | 7.66 | 6.53 | – | – | – | – | –
3 | C=CC(=O)N1CCN(NC2CCc3cc(-n4c(-c5cccnc5N)nc5ccc(-n6cccn6)nc54)ccc32)CC1 (single isomer, unassigned) [Example 147, (*)-1-(4-((5-(2-(2-aminopyridin-3-yl)-5-(1H-pyrazol-1-yl)-3H-imidazo[4,5-b]pyridin-3-yl)-2,3-dihydro-1H-inden-1-yl)amino)piperazin-1-yl)prop-2-en-1-one] | 6.82 | 6.04 | 7.49 | – | – | – | 6.40 | – | –
4 | C=CC(=O)N1CCC(N[C@H]2CCc3cc(-n4c(-c5cccnc5N)nc5ccc(-n6ccc(OC7CC7)n6)nc54)ccc32)CC1 [Example 314, 1-(4-{[(1S)-5-[2-(2-aminopyridin-3-yl)-5-(3-cyclopropoxypyrazol-1-yl)imidazo[4,5-b]pyridin-3-yl]-2,3-dihydro-1H-inden-1-yl]amino}piperidin-1-yl)prop-2-en-1-one] | 8.13 | 7.62 | 7.02 | 7.26 | – | – | – | – | –

More lines, in order of rising pIC50 (AKT1 E17K [2]), values ahead:

Row | pIC50 (AKT1 E17K [2]) | pIC50 (AKT2) | pIC50 (AKT1 WT [3]) | pIC50 ([4]; Homo sapiens, LAPC4, 72 h) | covalent bond formation in co-crystal structure (AKT1 WT [5]) | covalent bond formation in co-crystal structure (AKT1 E17K [6]) | pIC50 ([4]; 72 h) | SMILES | interaction seen in the co-crystal structure (site of covalent attachment) (AKT1 WT [1]) | interaction seen in the co-crystal structure (site of covalent attachment) (AKT E17K)
5 | 6.58 | 6.56 | 7.47 | 6.49 | – | – | – | C=C(F)C(=O)N1CCC2(CC1)CC(N[C@H]1CCc3cc(-n4c(-c5cccnc5N)nc5ccc(-n6cccn6)nc54)ccc31)C2 [Example 84, (S)-1-(2-((5-(2-(2-aminopyridin-3-yl)-5-(1H-pyrazol-1-yl)-3H-imidazo[4,5-b]pyridin-3-yl)-2,3-dihydro-1H-inden-1-yl)amino)-7-azaspiro[3.5]nonan-7-yl)-2-fluoroprop-2-en-1-one] | – | –
6 | 7.25 | 6.65 | 7.77 | 6.84 | covalent bond formation with C296 | covalent bond formation with C296 | – | C=CC(=O)N1CCC(N[C@H]2CCc3cc(-n4c(-c5cccnc5N)nc5ccc(-n6cccn6)nc54)ccc32)CC1 [Example 13, 1-(4-{[(1S)-5-[2-(2-aminopyridin-3-yl)-5-(pyrazol-1-yl)imidazo[4,5-b]pyridin-3-yl]-2,3-dihydro-1H-inden-1-yl]amino}piperidin-1-yl)prop-2-en-1-one] | covalent bond between C296 cysteine residue of AKT1 WT and Compound 13 | covalent bond between C296 cysteine residue of AKT E17K and Compound 13
7 | 7.28 | 7.17 | 7.95 | 6.74 | – | – | – | CN(C)C/C=C/C(=O)Nc1ccccc1C(=O)N[C@H]1CCc2cc(-n3c(-c4cccnc4N)nc4ccc(-n5cccn5)nc43)ccc21 [Example 16, (S,E)-N-(5-(2-(2-aminopyridin-3-yl)-5-(1H-pyrazol-1-yl)-3H-imidazo[4,5-b]pyridin-3-yl)-2,3-dihydro-1H-inden-1-yl)-2-(4-(dimethylamino)but-2-enamido)benzamide] | – | –
8 | 7.68 | 6.77 | 5.97 | – | – | – | 6.19 | C=CC(=O)N1CCC(N[C@H]2CCc3cc(-n4c(-c5cccnc5N)nc5ccc(C6CC6)nc54)ccc32)C(C)C1 (single isomer, unassigned) [Example 232, 1-((3*,4*)-4-(((S)-5-(2-(2-aminopyridin-3-yl)-5-cyclopropyl-3H-imidazo[4,5-b]pyridin-3-yl)-2,3-dihydro-1H-inden-1-yl)amino)-3-methylpiperidin-1-yl)prop-2-en-1-one] | – | –
